Results: ChEMBL document CHEMBL1123958, “Synthesis and antiviral properties of (E)-5-(2-bromovinyl)-2'-deoxycytidine-related compounds” (J Med Chem, 1988)

How the values were obtained:
Human alphaherpesvirus 2 [1] = experiment: Concentration required to reduce HSV-2 virus induced cytopathogenicity in rabbit cell kidney culture (G cells); assay type: functional, organism-based
Human alphaherpesvirus 1 [2] = experiment: Concentration required to reduce HSV-1 virus induced cytopathogenicity in rabbit cell kidney culture (F cells); assay type: functional, organism-based
Human alphaherpesvirus 1 [3] = experiment: Concentration required to reduce HSV-1 virus induced cytopathogenicity in rabbit cell kidney culture (KOS cells); assay type: functional, organism-based
[4] = tested on: Vesicular stomatitis virus; experiment: Concentration required to reduce vesicular stomatitis virus induced cytopathogenicity in rabbit cell kidney culture; assay type: functional, organism-based
Oryctolagus cuniculus [5] = species: Oryctolagus cuniculus; experiment: Minimum cytotoxic concentration causing microscopically detectable alteration of normal cell morphology of rabbit kideny cells; assay type: functional; set-up: unit not given here
Human alphaherpesvirus 2 [6] = experiment: Concentration required to reduce HSV-2 virus induced cytopathogenicity in rabbit cell kidney culture (Lyons cells); assay type: functional, organism-based
Human alphaherpesvirus 2 [7] = experiment: Concentration required to reduce HSV-2 virus induced cytopathogenicity in rabbit cell kidney culture (196 cells); assay type: functional, organism-based
Human alphaherpesvirus 1 [8] = experiment: Concentration required to reduce HSV-1 virus induced cytopathogenicity in rabbit cell kidney culture (McIntyre cells); assay type: functional, organism-based
Oryctolagus cuniculus [9] = species: Oryctolagus cuniculus; experiment: Minimum cytotoxic concentration causing microscopically detectable alteration of normal cell morphology of rabbit kidney cells; assay type: functional

| SMILES | Concentration (Human alphaherpesvirus 2 [1]) | Concentration (Human alphaherpesvirus 1 [2]) | Concentration (Human alphaherpesvirus 1 [3]) | Concentration [4] | MCC (Oryctolagus cuniculus [5]) | Concentration (Human alphaherpesvirus 2 [6]) | Concentration (Human alphaherpesvirus 2 [7]) | Concentration (Human alphaherpesvirus 1 [8]) | MCC (Oryctolagus cuniculus [9]) |
| --- | --- | --- | --- | --- | --- | --- | --- | --- | --- |
| Cc1cn(C2CC(O)C(CCl)O2)c(=O)nc1-n1cncn1 (stereo not drawn) | > 10 µg/mL | > 10 µg/mL | > 10 µg/mL | > 10 µg/mL | >10 | > 10 µg/mL | > 10 µg/mL | > 10 µg/mL | – |
| O=c1nc(-n2cncn2)c(/C=C/Br)cn1C1CC(O)C(CCl)O1 (stereo not drawn) | > 100 µg/mL | > 100 µg/mL | 70 µg/mL | > 100 µg/mL | >100 | > 100 µg/mL | > 100 µg/mL | > 100 µg/mL | – |
| O=c1nc(-n2cncn2)c(/C=C/Br)cn1[C@H]1C[C@H](O)[C@@H](CO)O1 | 20 µg/mL | 0.07 µg/mL | 0.07 µg/mL | > 200 µg/mL | – | 70 µg/mL | > 200 µg/mL | 0.1 µg/mL | – |
| Cc1cn([C@H]2C[C@H](O)[C@@H](CO)O2)c(=O)nc1-n1cncn1 | 20 µg/mL | > 40 µg/mL | > 40 µg/mL | > 40 µg/mL | – | 20 µg/mL | 20 µg/mL | 20 µg/mL | – |
| Nc1nc(=O)n([C@H]2C[C@H](O)[C@@H](CO)O2)cc1/C=C/Br | 20 µg/mL | 0.2 µg/mL | 0.1 µg/mL | > 400 µg/mL | >400 | > 400 µg/mL | > 400 µg/mL | 0.2 µg/mL | – |
| O=c1[nH]c(=O)n([C@H]2C[C@H](O)[C@@H](CO)O2)cc1/C=C/Br [BRIVUDINE] | 2 µg/mL | 0.02 µg/mL | 0.02 µg/mL | > 400 µg/mL | – | 7 µg/mL | 30 µg/mL | 0.02 µg/mL | >400 |
| CC(=O)OC[C@H]1O[C@@H](n2cc(/C=C/Br)c(-n3cncn3)nc2=O)C[C@@H]1OC(C)=O | 20 µg/mL | 0.2 µg/mL | 0.1 µg/mL | > 200 µg/mL | – | 20 µg/mL | 20 µg/mL | 0.07 µg/mL | – |
| CC(=O)OC[C@H]1O[C@@H](n2cc(C)c(-n3cncn3)nc2=O)C[C@@H]1OC(C)=O | > 40 µg/mL | > 40 µg/mL | > 40 µg/mL | > 40 µg/mL | – | > 40 µg/mL | > 40 µg/mL | > 40 µg/mL | – |
| CC(=O)OC[C@H]1O[C@@H](n2cc(/C=C/Br)c(=O)[nH]c2=O)C[C@@H]1OC(C)=O | 20 µg/mL | 0.1 µg/mL | 0.1 µg/mL | > 300 µg/mL | >300 | 40 µg/mL | 100 µg/mL | 0.2 µg/mL | – |
